Laboratory results: patent US20140315834A1 (Medicon Pharmaceuticals, Inc., priority 2012, published 2014)
Like-named read-outs stand apart in the source and are kept apart here.

What was measured:
A549 = assay type: in vivo, mice; conditions: Lung A549 ot, ip
A431 = assay type: in vivo, mice; conditions: Skin A431 id; Topical, 2 week
AGS = assay type: in vivo, mice; conditions: Gastric AGS sc, ip
[1] = assay type: in vivo, Lewis rats
in vivo = conditions: mouse
[2] = test system: U87 glioblastoma cell line; test: 24-hour growth inhibition of glioblastoma cells; assay type: cell-based; conditions: 24 h, read-out: 24-h 1c50
U87 glioblastoma cells = test: Apoptosis by Annexin V-FITC / propidium iodide staining; assay type: cell-based; conditions: 24 hours; PGIA 4 200 μM, PV 116 40 μM, alone or combined
Description: The potential synergy between PV and PGIA in inhibiting the growth of U87 glioblastoma cells was assessed by isobolographic analysis. After treatment with PV 116 or PGIA 4 alone or in combination for 24 hours, the following as determined: a) cell growth using the MTT assay (Promega, Madison, Wis.) and b) apoptosis by staining with Annexin V-FITC (Invitrogen) and propidium iodide 0.5 μg/ml and analyzing the fluorescence intensity by FACS caliber.

U87 = U87 glioma sc xenograft; conditions: 20 mg/kg/d alone × 12 d, ip
[3] = test system: A549 human lung cancer cells; test: Aerosol PS in orthotopic GFP-A549 lung cancer model; assay type: in vivo, mice; conditions: aerosol 50 mg/mL PS for 8 minutes, treatment group
Description: PS dissolved in ethanol was placed in the baffle and aerosolized with the ultrasonic atomizer. […] The air flow in the system used to deliver by inhalation the test drug to mice was controlled by an inlet air regulator and a vacuum pump which draws air from the system.
Mice received 50 mg/mL PS for 8 minutes. After one week of treatment, 1 million A549 human lung cancer cells stably expressing green fluorescence protein (GFP-A549) were injected into the left lung through a 5 mm incision) was made to the left side of the chest. GFP allows the detection and quantification of these cells. […] Inhalation treatment, suspended for 2 days post-surgery, continued for 6 weeks.

[4] = Drug levels after inhalation vs oral administration of PS; assay type: in vivo, mice
[5] = Pharmacokinetics of phospho-sulindac in wild type and Ces1c knockout mice; assay type: in vivo; conditions: intraperitoneal and intravenous administration
From the text: This is reflected in the enhanced distribution of intact phospho-sulindac in various tissues.

[6] = test system: lung and pancreatic carcinoma (Lewis lung carcinoma); test: Efficacy in Ces1c knockout vs wild type mice; assay type: in vivo
[7] = Hydrolysis of PS in PLLA(10K)-PEG(2K) nanocarrier, control pharmacokinetic experiments; assay type: in vivo
Description: Protection of phospho-NSAIDs from hydrolysis by encapsulation in nanocarriers enhances their anti-cancer efficacy. For example, PS was formulated in a nanocarrier suitable for iv administration [PLLA(10K)-PEG(2K)]. […] Nude mice bearing subcutaneous A549 human lung cancer xenografts were then given intravenously PS 60 mg/kg/d ×2d/week and the equimolar dose of sulindac (40 mg/kg.) Sulindac was ineffective in inhibiting the growth of the xenografts whereas PS was (32% vs. 75%; p<0.012). […] In other words, the anticancer efficacy of PS is not the result of its being metabolized to sulindac (Xie G, et al., Brit J. Pharmacol. 2012; 165:2152-66; Wong et al., J Pharmacol Exp Ther. 2012; 340:422-32).

[8] = test system: A549 human lung cancer xenografts; test: A549 sc xenografts, i.v. PS in nanocarrier vs sulindac; assay type: in vivo, mice; conditions: PS in nanocarrier, intravenously 60 mg/kg/d ×2d/week
[9] = Ferric chloride-induced carotid artery thrombus; assay type: in vivo, mice; conditions: oral, 40% of MTD, injury one hour later; FIG. 32B
Description: In this model the carotid artery is briefly exposed to FeCl3 leading to thrombus formation at the site of the injury and occlusion of blood flow. […] Flow rate was then measured for 30 minutes (FIG. 32).

platelets = test: Ex vivo platelet aggregometry, collagen agonist; assay type: in vivo, mice; conditions: 40% MTD; collagen 1 μg/mL
Description: Platelet aggregation was studied using an Aggregometer (Chrono-Log, Havertown, Pa.). […] Maximum inhibition of aggregation occurred at 1 hour post treatment (FIG. 34).

[10] = test system: AGS human gastric xenografts; conditions: nude mice; alone or with esterase inhibitor; cited from earlier work
MDA = MDA breast sc xenograft; conditions: 120 mg/kg/d × 22 d, ip
HT-29 = HT-29 colon sc xenograft; conditions: Colon HT-29 sc; 120 mg/kg/d × 12 d, ip
BT-20 = BT-20 breast sc xenograft; conditions: Breast BT-20 sc; 120 mg/kg/d × 28 d, ip
HCT116 = HCT116 colon xenograft; conditions: Colon HCT116 sc; 100 mg/kg/d × 12 d, ip
MCF7 = MCF7 breast sc xenograft
[11] = Ulcerative colitis (IBD), DSS; conditions: 300 mg/kg/d × 10 d, po

CCOP(=O)(OCC)OCCCCNC(=O)C(C)c1ccc(CC(C)C)cc1 (stereo not shown) [Compound 1, Phosphoric acid diethyl ester 4-[2-(4-isobutyl-phenyl)-propionylamino]-butyl ester]
Reduction (A549; 160 mg/kg/d × 6 week): 75% | Reduction (A431): 46% | Reduction (AGS; 160 mg/kg/d × 3 week): 34% | Latency, sec Mean ± SEM ([1]; Dose 120 mg/kg ip, 30 minutes prior to testing): 23.42 ± 1.16 s | MTD at 6 week (in vivo; nude, ip): 160 mg/kg/day

CCOP(=O)(OCC)OCC(CNC(=O)C(C)c1ccc(CC(C)C)cc1)OP(=O)(OCC)OCC (stereo not shown) [Compound 4, Phospho-Ibuprofen Gylcerol Amide]
IC50 [2]: 87 µM | fold-increase of annexinV (+) cells (U87 glioblastoma cells): 1.8 fold | MTD at 12 days (in vivo; nude, ip): 20 mg/kg/day | MTD at 1 week (in vivo; wt (wild type), po): > 600 mg/kg/day | Reduction (U87): 52%

CCOP(=O)(OCC)OCCCCOC(=O)CC1=C(C)/C(=C/c2ccc([S+](C)[O-])cc2)c2ccc(F)cc21 (stereo not shown) [Compound 96, Phospho-Sulindac]
death rate by the end of the study [3]: less than 10% | PS levels in plasma ([4]; after inhalation or oral gavage): Undetectable | level of intact PS in the lungs ([4]; inhalational 6.5 mg/kg body weight): > 20 nmol/g | total drug levels (PS plus metabolites) in lungs, inhalation compared to oral ([4]; inhalational 6.5 mg/kg vs oral 150 mg/kg): significantly higher | level of intact PS in the lungs ([4]; oral 150 mg/kg body weight): < 2 nmol/g | less inactivation in Ces1c knockout mice vs wild type [5]: approximately 2 fold | efficacy against Lewis lung carcinoma (LLC) in Ces −/− mice ([6]; 150 mg/kg, i.p., subcutaneous LLC tumors, FIG. 35): more efficacious | more effective in inhibiting growth of lung and pancreatic carcinoma in Ces1c knockout vs wild type mice ([6]; mouse, in vivo): approximately 2 fold | PS in nanocarrier hydrolyzed to sulindac [7]: < 6% | inhibition of growth of xenografts [8]: 75% | carotid artery blood flow following injury with FeCl3 [9]: flow rate is maintained | time of maximum inhibition of aggregation post treatment (platelets): 1 h | analgesic effect ([1]; carboxylic esters, systemic, also topical in a hydrogel): effective | Bleeding time (150 mg/kg orally, 1 hour after administration): 88 ± 7 s | prolongation of the bleeding time (treated mice): no prolongation of the bleeding time | inhibition of growth of AGS xenografts [10]: 28%

CCCC(CCC)C(=O)Oc1ccc(COP(=O)(OCC)OCC)cc1 [Compound 116, Phosphovalproic Acid]
fold-increase of annexinV (+) cells (U87 glioblastoma cells): 3.0 fold | Reduction (A549; 100 mg/kg/d × 6 week): 80% | Reduction (AGS; 100 mg/kg/d × 3 week): 81% | Reduction (MDA): 63% | Reduction (HT-29): 40% | Reduction (BT-20): 37%

phospho-aspirin glycerol amide [Compound 194]
Latency, sec Mean ± SEM ([1]; rat, in vivo, ip, 150 mg/kg): 19.92 ± 0.78 s | Reduction (HCT116): 18% | Reduction (MCF7; 120 mg/kg/d × 29 d, po, prevention): 55% | Reduction (MCF7; 500 mg/kg/d × 12 d, ip, treatment): 80-100% | Reduction [11]: 30-48%
